Laboratory results reported in ChEMBL document CHEMBL1201862, “PubChem BioAssay data set” (2004).
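Assay format: 96-well plates, 48-hour exposure. GI50 = concentration required for 50% inhibition of growth.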 The source made the active and inactive calls. Cut-off read from the data, not from the text of the source: active = GI50 up to about 1.1 µM and inactive = higher.

Columns and labels:
Assay in all cases: DTP human tumour cell line panel, 48 h
[1] = system: 786-0
[2] = system: CAKI-1
[3] = system: COLO 205
[4] = system: DU-145
[5] = system: HT-29
[6] = system: IGROV-1
[7] = system: M14
[8] = system: MOLT-4
[9] = system: Malme-3M
[10] = system: NCI-H522
[11] = system: NCI/ADR-RES
[12] = system: RXF 393
[13] = system: SF-539
[14] = system: SK-MEL-28
[15] = system: SK-MEL-5
[16] = system: SW-620
[17] = system: T47D
[18] = system: UO-31
[19] = system: U-251
[20] = system: UACC-257

Measured: GI50

COc1cc(/C=N/NC(=O)c2ccc(NC(C)=O)cc2OC)ccc1O
inactive: [1] > 100 µM | [2] > 100 µM | [3] 56.1 µM | [4] 69.5 µM | [5] > 100 µM | [6] 64 µM | [7] > 100 µM | [8] > 100 µM | [9] > 100 µM | [10] 96.2 µM | [11] > 100 µM | [12] 39.3 µM | [13] 39.2 µM | [14] > 100 µM | [15] > 100 µM | [16] > 100 µM | [17] 84.5 µM | [18] > 100 µM

Cc1ccc2cc3c(ccc4ccccc43)c3c2c1CC3 [3-METHYLCHOLANTHRENE]
inactive: [1] > 100 µM | [2] > 100 µM | [3] > 100 µM | [4] > 100 µM | [5] > 100 µM | [6] > 100 µM | [7] > 100 µM | [8] > 100 µM | [10] > 100 µM | [11] > 100 µM | [12] > 100 µM | [13] > 100 µM | [14] > 100 µM | [15] > 100 µM | [16] > 100 µM | [17] > 100 µM | [19] > 100 µM | [20] > 100 µM | [18] > 100 µM

Cc1sc2nc3n(c(=O)c2c1C)N=C(c1ccccc1)CS3
inactive: [1] 47.5 µM | [2] > 100 µM | [3] > 100 µM | [4] > 100 µM | [5] > 100 µM | [6] > 100 µM | [8] > 100 µM | [9] > 100 µM | [10] > 100 µM | [11] > 100 µM | [12] > 100 µM | [13] > 100 µM | [14] > 100 µM | [15] > 100 µM | [16] > 100 µM | [17] > 100 µM | [19] > 100 µM | [20] > 100 µM | [18] > 100 µM

O=C(/C=C/c1ccc(-c2ccccc2)cc1)NCc1ccc(C(=O)NCc2ccccc2)cc1
inactive: [1] > 100 µM | [2] > 100 µM | [3] > 100 µM | [4] > 100 µM | [5] 71.1 µM | [6] > 100 µM | [7] > 100 µM | [9] > 100 µM | [10] > 100 µM | [11] > 100 µM | [12] 12.7 µM | [13] > 100 µM | [14] > 100 µM | [15] > 100 µM | [16] > 100 µM | [17] > 100 µM | [19] > 100 µM | [20] > 100 µM | [18] > 100 µM

Cc1cn(C2CC(N=[N+]=[N-])C(CO)O2)c(=O)n(CCCCBr)c1=O (configuration not stated)
inactive: [1] > 100 µM | [2] > 100 µM | [3] > 100 µM | [4] > 100 µM | [5] > 100 µM | [6] > 100 µM | [7] > 100 µM | [8] 95.1 µM | [9] > 100 µM | [10] > 100 µM | [11] 63.8 µM | [12] > 100 µM | [13] > 100 µM | [14] > 100 µM | [16] > 100 µM | [17] > 100 µM | [19] 18.8 µM | [20] > 100 µM | [18] > 100 µM

Cc1cc(Cc2cc(C)c(N)cc2N)c(N)cc1N
inactive: [1] > 100 µM | [2] > 100 µM | [3] > 100 µM | [4] > 100 µM | [5] > 100 µM | [6] 4.38 µM | [7] > 100 µM | [8] 33.3 µM | [10] 88.9 µM | [11] > 100 µM | [12] > 100 µM | [13] 80.2 µM | [14] > 100 µM | [15] > 100 µM | [16] > 100 µM | [17] > 100 µM | [19] > 100 µM | [20] > 100 µM | [18] > 100 µM

O=[N+]([O-])c1ccc(C2ON=C(c3ccccc3)N2C23CC4CC(CC(C4)C2)C3)cc1 (configuration not stated)
inactive: [1] > 10 µM | [2] > 10 µM | [3] > 10 µM | [4] > 10 µM | [5] > 10 µM | [6] > 10 µM | [7] > 10 µM | [8] > 10 µM | [9] > 10 µM | [10] > 10 µM | [11] > 10 µM | [12] > 10 µM | [13] 2.89 µM | [14] > 10 µM | [15] > 10 µM | [16] > 10 µM | [17] > 10 µM | [19] 6.35 µM | [20] > 10 µM
